The target in assay [1] is T1, Glycogen synthase kinase-3 beta (Homo sapiens, UniProt P49841). The experiment in a line: Inhibition of human Glycogen synthase kinase-3 beta (GSK3-beta) at 100 uM ATP.
Assay [2] addresses T1, Glycogen synthase kinase-3 beta.
Description: Inhibitory activity against human glycogen synthase kinase-3beta (GSK3-beta) at 100 uM ATP
For assay [3] the target is unchanged. The format is functional, cell-based, Cricetulus griseus, CHO-hIR.
The target is the same in assay [4]. It counts as functional, cell-based, Cricetulus griseus, CHO.
Description: Stimulation of glycogen synthase in CHO cells expressing human insulin receptor
In assay [5] the target is Cyclin-dependent kinase 2/cyclin A (Homo sapiens, UniProt P24941). The assay can be described thus: Inhibition of Cyclin-dependent kinase 2-cyclin A. It counts as protein-complex assay.

pEC50, pIC50: −log10 of the molar value.

T1 sequence (P49841 whole entry): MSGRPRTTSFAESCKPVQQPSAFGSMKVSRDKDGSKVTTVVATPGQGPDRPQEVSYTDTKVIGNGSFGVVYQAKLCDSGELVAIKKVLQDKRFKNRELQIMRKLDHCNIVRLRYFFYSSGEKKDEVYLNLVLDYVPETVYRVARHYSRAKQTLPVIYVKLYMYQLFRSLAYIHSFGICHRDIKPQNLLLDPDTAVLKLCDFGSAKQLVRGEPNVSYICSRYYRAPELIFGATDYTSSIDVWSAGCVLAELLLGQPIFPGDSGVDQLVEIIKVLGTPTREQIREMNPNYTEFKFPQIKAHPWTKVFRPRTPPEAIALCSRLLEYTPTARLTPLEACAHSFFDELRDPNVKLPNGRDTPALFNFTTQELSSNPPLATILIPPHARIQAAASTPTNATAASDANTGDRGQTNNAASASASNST

A word on the pIC50: it is the negative decadic logarithm of the IC50, by convention in mol/L. In assay [1], `CCN(CC)Cc1c(C(=O)NN)nnn1-c1nonc1N` showed a pIC50 of 4.77.

`Nc1nonc1-n1nnc(C(=O)NCc2ccncc2)c1CN1CCCCC1` gave a pIC50 in assay [2] of 5.03.

On to `CN(C)Cc1c(-c2n[nH]c(-c3ccncc3)n2)nnn1-c1nonc1N`, for which the pIC50 in assay [2] is 5.16.

Regarding `Nc1nonc1-n1nnc(C(=O)NCCc2ccncc2)c1CN1CCCC1`, the pIC50 in assay [2] is 5.68. This pIC50 lies 0.52 log units higher than the previous one.

One may read the pEC50 as the EC50 on a negative log10 scale, so that one unit is a factor of ten. In the case of `Nc1nonc1-n1nnc(C(=O)NCCc2ccncc2)c1CN1CCCCC1`, the figures for the pEC50 in assay [3] and in assay [4] were 4.24 and 4.72, respectively. In addition, the figures for the pIC50 in assay [2] and in assay [5] were 5.94 and 3.92, respectively.

`Nc1nonc1-n1nnc(C(=O)N/N=C/c2ccncc2)c1CN1CCCC1`: in assay [2], the pIC50 was 7.00.

`CN(CCc1ccncc1)C(=O)c1nnn(-c2nonc2N)c1CN1CCCCC1`: the pIC50 in assay [2] is < 3.60.

Regarding `CC(C)CNCc1c(C(=O)NCc2ccncc2)nnn1-c1nonc1N`, the pIC50 in assay [2] was < 3.60.

Compound `NNC(=O)c1nnn(-c2nonc2N)c1CN1CCCCC1` had a pIC50 in assay [2] of 5.02.

Take `CCN(CC)Cc1c(C(=O)N/N=C/c2ccncc2)nnn1-c1nonc1N`: in assay [2], the pIC50 was 6.39.

In assay [2], `CCN(CC)Cc1c(C(=O)NCCc2ccncc2)nnn1-c1nonc1N` had a pIC50 of 4.93. Against the preceding compound, the pIC50 is 1.46 log units lower.

In assay [2], `Nc1nonc1-n1nnc(-c2n[nH]c(-c3ccncc3)n2)c1CN1CCCC1` had a pIC50 of 6.62.

On to `Nc1nonc1-n1nnc(C(=O)N/N=C/c2ccncc2)c1CN1CCCCC1`, for which the figures for the pEC50 in assay [3] and in assay [4] were 5.34 and 5.55, respectively. Further, the figures for the pIC50 in assay [2] and in assay [5] were 7.00 and 4.02, respectively.

With `Nc1nonc1-n1nnc(-c2nnc(-c3ccncc3)[nH]2)c1CN1CCCCC1`, the pEC50 in assay [3] was 4.96; in assay [4], 5.73. Further, the pIC50 in assay [2] is 6.55; in assay [5] it was < 3.60.

Source of the values: ChEMBL document CHEMBL1145856, “Synthesis and in vitro characterization of 1-(4-aminofurazan-3-yl)-5-dialkylaminomethyl-1H-[1,2,3]triazole-4-carboxylic acid derivatives. A new class of selective GSK-3 inhibitors” (J Med Chem, 2003).
